Data on one compound can be found in US6389740B1, “Lethal mosquito breeding container” (The United States of America as represented by the …, priority 1997, dated 2002).

Read-outs that look alike come from different tables or passages of the source.

The conditions of data set [1]: 2 year beagle; cited from earlier work.
The conditions of data set [2]: rat, 90 day period; cited from earlier work.
The test system of data set [3] is mosquitoes. Description: Caged mortality test of egg laying structures returned after one month in the field. The note with it: paper paddles returned to the lab after one month in the field.
Description: A field test of a lethal breeding container according to Example 2, containing 0.87 deltramethrin on the egg laying structure, was conducted at three military housing sites in the Rio de Janeiro area of Brazil. At each housing site, six houses were selected to receive the lethal breeding containers. About 500 meters away, six houses were selected to serve as control units.
After one month in the field, the egg laying structures from the lethal container breeding containers were dried and shipped to the U.S. for testing. Four egg laying structures from outside lethal mosquito breeding containers and four egg laying structures from inside lethal mosquito breeding containers were reused in lethal. mosquito breeding containers and the mortality rate was determined.
A 1 cubic foot mosquito cage was used. The mosquitoes are given a blood meal at day 4 to 6 after post-emergence. […]
The mortality rate is determined by counting the number of deceased mosquitoes and live mosquitoes, adding these numbers together to arrive at the total number of mosquitoes exposed, and then dividing number of deceased mosquitoes by the total number of mosquitoes and multiplying that quotient by 100%. […]

With `CC1(C)[C@H](C(=O)O[C@H](C#N)c2cccc(Oc3ccccc3)c2)[C@@H]1C=C(Br)Br` [deltamethrin], the NOEL in data set [1] and in data set [2] was 1 mg/kg/day each time. For the same compound, the “average mortality in caged tests” value in data set [3] is reported as 80%.
